Data: the supplement of paper PMC13207355

Legend:
Details in all cases: exposure time: 72 h
E13 [1] = patient-derived glioblastoma stem cells of classical subtype; assay: surviving fraction (nuclei count normalised to DMSO); higher = more cells surviving (less toxic)
E21 [2] = patient-derived glioblastoma stem cells of mesenchymal subtype; assay: as above
E28 [3] = patient-derived glioblastoma stem cells of classical subtype; assay: as above
E31 [4] = patient-derived glioblastoma stem cells of proneural subtype; assay: as above
E34 [5] = patient-derived glioblastoma stem cells of proneural subtype; assay: as above
E57 [6] = patient-derived glioblastoma stem cells of mesenchymal subtype; assay: as above
FT3469 [7] = normal neural stem cell line; assay: as above
E13 [8] = assay: phenotypic distance (Euclidean, principal components) from DMSO controls (arbitrary units); higher = stronger morphological change
E21 [9] = assay: as above
E28 [10] = assay: as above
E31 [11] = assay: as above
E34 [12] = assay: as above
E57 [13] = assay: as above
FT3469 [14] = assay: as above
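For phenotypic distance (Euclidean, principal components) from DMSO controls in this document: cell Painting imaging in 384-well plates, CellProfiler features reduced to at least 20 principal components, Euclidean distance versus same-plate DMSO vehicle wells (0.1% v/v), median over six images per well.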
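For surviving fraction (nuclei count normalised to DMSO) in this document: nuclei counted by high-content imaging of Hoechst-stained cells in laminin-coated 384-well plates, relative to 0.1% DMSO vehicle wells, with staurosporine as cell-death control.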

CN1C(=O)CC(c2ccccc2)C1=O (stereo not drawn) [Phensuximide]
Details | phenotypic distance | surviving fraction
E13 [1], 4.1 nM | – | 0.921
E13 [1], 12.3 nM | – | 0.916
E13 [1], 37 nM | – | 1.01
E13 [1], 111.1 nM | – | 1
E13 [1], 333.3 nM | – | 1
E13 [1], 1000 nM | – | 1.06
E13 [1], 3000 nM | – | 0.927
E13 [8], 4.1 nM | 1.82 | –
E13 [8], 12.3 nM | 4.3 | –
E13 [8], 37 nM | 2.63 | –
E13 [8], 111.1 nM | 0.682 | –
E13 [8], 333.3 nM | 0.274 | –
E13 [8], 1000 nM | 0.544 | –
E13 [8], 3000 nM | 0.597 | –
E21 [2], 4.1 nM | – | 0.998
E21 [2], 12.3 nM | – | 0.996
E21 [2], 37 nM | – | 1.03
E21 [2], 111.1 nM | – | 1.04
E21 [2], 333.3 nM | – | 1
E21 [2], 1000 nM | – | 1.09
E21 [2], 3000 nM | – | 0.963
E21 [9], 4.1 nM | 0.59 | –
E21 [9], 12.3 nM | 0.489 | –
E21 [9], 37 nM | 0.352 | –
E21 [9], 111.1 nM | 0.519 | –
E21 [9], 333.3 nM | 0.385 | –
E21 [9], 1000 nM | 0.686 | –
E21 [9], 3000 nM | 0.387 | –
E28 [3], 4.1 nM | – | 1.07
E28 [3], 12.3 nM | – | 1.03
E28 [3], 37 nM | – | 1.15
E28 [3], 111.1 nM | – | 1.09
E28 [3], 333.3 nM | – | 1
E28 [3], 1000 nM | – | 0.995
E28 [3], 3000 nM | – | 1.2
E28 [10], 4.1 nM | 0.664 | –
E28 [10], 12.3 nM | 0.467 | –
E28 [10], 37 nM | 0.453 | –
E28 [10], 111.1 nM | 0.603 | –
E28 [10], 333.3 nM | 0.45 | –
E28 [10], 1000 nM | 0.513 | –
E28 [10], 3000 nM | 0.714 | –
E31 [4], 4.1 nM | – | 1.08
E31 [4], 12.3 nM | – | 1.07
E31 [4], 37 nM | – | 1.1
E31 [4], 111.1 nM | – | 1.01
E31 [4], 333.3 nM | – | 1.14
E31 [4], 1000 nM | – | 1.13
E31 [4], 3000 nM | – | 0.991
E31 [11], 4.1 nM | 0.79 | –
E31 [11], 12.3 nM | 0.39 | –
E31 [11], 37 nM | 0.726 | –
E31 [11], 111.1 nM | 0.491 | –
E31 [11], 333.3 nM | 0.604 | –
E31 [11], 1000 nM | 0.913 | –
E31 [11], 3000 nM | 0.717 | –
E34 [5], 4.1 nM | – | 0.918
E34 [5], 12.3 nM | – | 1.14
E34 [5], 37 nM | – | 0.912
E34 [5], 111.1 nM | – | 0.81
E34 [5], 333.3 nM | – | 1.16
E34 [5], 1000 nM | – | 1.1
E34 [5], 3000 nM | – | 1.1
E34 [12], 4.1 nM | 0.49 | –
E34 [12], 12.3 nM | 0.73 | –
E34 [12], 37 nM | 0.867 | –
E34 [12], 111.1 nM | 0.657 | –
E34 [12], 333.3 nM | 1.01 | –
E34 [12], 1000 nM | 0.819 | –
E34 [12], 3000 nM | 0.663 | –
E57 [6], 4.1 nM | – | 1.02
E57 [6], 12.3 nM | – | 1.06
E57 [6], 37 nM | – | 1.05
E57 [6], 111.1 nM | – | 1.03
E57 [6], 333.3 nM | – | 1.05
E57 [6], 1000 nM | – | 1.04
E57 [6], 3000 nM | – | 0.978
E57 [13], 4.1 nM | 0.764 | –
E57 [13], 12.3 nM | 0.516 | –
E57 [13], 37 nM | 0.543 | –
E57 [13], 111.1 nM | 0.342 | –
E57 [13], 333.3 nM | 0.878 | –
E57 [13], 1000 nM | 0.346 | –
E57 [13], 3000 nM | 0.811 | –
FT3469 [7], 4.1 nM | – | 0.946
FT3469 [7], 12.3 nM | – | 0.989
FT3469 [7], 37 nM | – | 1
FT3469 [7], 111.1 nM | – | 1
FT3469 [7], 333.3 nM | – | 0.985
FT3469 [7], 1000 nM | – | 1.01
FT3469 [7], 3000 nM | – | 1.15
FT3469 [14], 4.1 nM | 1.58 | –
FT3469 [14], 12.3 nM | 0.664 | –
FT3469 [14], 37 nM | 0.821 | –
FT3469 [14], 111.1 nM | 0.515 | –
FT3469 [14], 333.3 nM | 0.721 | –
FT3469 [14], 1000 nM | 0.254 | –
FT3469 [14], 3000 nM | 0.402 | –
